Test results taken from patent US6911527B1, “HIV related peptides” (The United States of America as represented by the …, priority 1999, dated 2005).

Columns and labels:
[1] = ELISA reactivities of engineered (modified) peptide epitopes; format: binding
Description: The amino acid sequences of modifed peptides generated in this manner are as follows: • P195 analog: […] (SEQ ID NO: 14) • P197 analog: […] (SEQ ID NO:15) • P217 analog: […] (SEQ ID NO:16) • P287 analog: […] (SEQ ID NO: 17) • P335 analog: CSGRLYCHESWC (SEQ ID NO:18) • P54 analog: TKTLIYQGA (SEQ ID NO:19) The engineered eptiopes are then determined to be immunogenic as described in Example 4-6.

[2] = system: binding of phagotope-specific antibodies to HIV-1; test: Displacement of binding of phagotope-specific antibodies to HIV-1 by phagotopes or peptides (ELISA); settings: increasing concentrations of peptide
Description: FIG. 3. Phagotope-specific antibodies bind to HIV-1. a, ELISA reactivities of immunoaffinity purified antibodies with HIV-1. Antibodies were immunoaffinity purified from LTNP serum 6090 using single phagotopes as ligands and tested for ELISA reactivity against HIV-1 virions by using a standard ELISA kit (Organon). Purified antibodies were tested at 5-10 ng/ml; HIV-negative (CS) and serum 6090 (HIV-1S) were tested at 1:100 dilution. Data are expressed as mean±SEM of four independent determinations. b, The binding of phagotope-specific antibodies to HIV-1 is specifically displaced by the related phagotopes. ELISA reactivities of single immunopurified antibodies to HIV-I were tested in the presence of the indicated concentrations of p195 (▪), p197 (♦), p217 (●), p287 (▴), p335(▾). […] ELISA reactivities of single immunoaffinity purified antibodies with the related phagotopes were tested in the presence of increasing concentrations of peptides 195 (▪), 197 (▴), 217 (♦), 287 (ρ), 335 (●). d, HIV-1 immunoblotting with phagotope-specific human antibodies. Immunoffinity purified antibodies were tested at 60 ng/ml for binding to HIV-1 proteins in Western blot by a diagnostic kit (Cambridge Biotech.); 6090 LTNP serum was tested at 1:1000 dilution.
The phagotope specific antibodies, purified from serum to IgG concentrations of 5-10 ng/ml, recognized HIV-1 proteins by ELISA (FIG. 3a); this reactivity was specifically displaced by the related phagotopes, but not by wild-type or unrelated phages (FIG. 3b and data not shown).

[3] = system: serum antibodies of HIV-1-infected subjects; test: ELISA reactivity of phagotopes with human sera (LTNP, AIDS, HIV-negative); format: binding; settings: for antibody titers to phagotope in sera from LTNPs versus AIDS patients: p<0.05, one-sided Student's t test
Source text: FIG. 1. ELISA reactivities of HIV-specific phagotopes. a, LTNP and AIDS subjects were selected as reported (Pantaleo et al., N. Engl. J Med 332:209 (1995)). HIV-specific phagotopes were identified from RPL pVIII9aa-cys (selection 1), or pVIII9aa (selection 2) by serial steps of screening and phage colony purification as described in the Methods section. Results are expressed as fold increase of the average values of the phagotopes over values of the wild-type phages. Values were considered positive when at least four-fold higher than the background signal of wild-type phage. Average values of at least four independent assays are shown as <4; 4<<10; 10.1<<20; >20. The far right column indicates the recognition frequency of positive sera by each phagotope (f). The percentages of significant phage reactivity in the HIV-positive and control groups were compared using the Fisher Exact Test; p values (p<0.001) were adjusted for multiple testing using the Bonferroni method. b, Comparison of ELISA reactivities of phagotopes with sera of LTNP (hatched bars) versus AIDS subjects (black bars). Data are expressed as mean±SEM of fold increase for each phagotope. Statistical analysis was performed according to the one-sided Student's t test; asterisks indicate p<0.05.
To validate that the bound phagotopes carry HIV-specific epitopes, positive colonies were tested by ELISA for reactivity with sera from multiple HIV-infected individuals and counter-screened with an equivalent number of sera from HIV-negative subjects. For the EJISA analysis, microtiter plates were coated with anti M13 antibody (Pharmacia, Piscataway, N.J.) at 10 μg/ml overnight at 4° C. in coating buffer. Fifty μl of cleared phage supernatant with an equal volume of blocking buffer were incubated for 1 h at 37° C. Plates were washed extensively and supplemented with human serum at 1:100 dilution followed by an overnight incubation at 4° C. After washing, wells were coated with an anti-human (Fc-specific) alkaline phosphatase-conjugated antibody. Plates were washed and developed. Results were expressed as the difference between OD405 nm and OD620 nm by an ELISA reader.

[4] = system: sera of SHIV-infected monkeys; test: ELISA reactivity of monkey sera with HIV-specific phagotopes; format: binding, macaques; settings: nine SHIV-infected monkeys
Description: FIG. 4. ELISA reactivities of monkey sera with HIV-specific phagotopes. Sera of naive monkeys (SHIV Negative) and SHIV-infected animals were tested for binding to HIV-1 phagotopes. Results are expressed as fold increase of OD405 nm values of tested phagotope over the OD405 nm values of wild-type-phage. Cutoff values were set as detailed in the legend to FIG. 1a. All the pre-infection sera of SHIV-positive animals tested negative by ELISA (not shown). A125, 42C, E50 and AK98 are Rhesus macaques; 4138, 4150 and 79 are cynomologous macaques; these animals were infected with SHIVMD1 (Shibata et al., J. Infect. Dis. 176:362 (1997)). 17860 and 17846 are pigtail macaques infected with SHIVMD14YE (Shibata et al., J. Infect. Dis. 176:362 (1997)).
In order to test this hypothesis, sera of nine SHIV-infected monkeys and of four uninfected control animals were tested for ELISA reactivity with the pool of HIV mimotopes. As in the case of HIV-1 infected subjects (FIG. 1a), sera of SHIV-infected monkeys recognized the HIV-1 phagotopes with variable frequencies (FIG. 4).

Row | Sequence | ELISA reactivities compared with the original peptides displayed on the phagotopes [1] | displacement of antibody binding to HIV-1 by peptides in solution [2] | further results
1 | EGEFCCNGRLYCQPCGDPAK [P217 analog] | similar |  | 
2 | GTKLVCFAA [compound 197] |  | effectively displaced | 
3 | CSGRLYCHESWC [P335 analog] | similar |  | 
4 | SGRLYCHESW [p335] |  |  | antibody titers to phagotope in sera from LTNPs versus AIDS patients [3]: significantly higher in sera from LTNPs
5 | CNGRLYCGP [peptide 217] |  | Only a partial competition | 
6 | TKTLIYGGA [p54] |  |  | ELISA reactivity with sera of SHIV-infected monkeys [4]: certain SHIV sera recognized
7 | TKTLIYQGA [P54 analog] | similar |  | 
8 | EGEFCCAGQLTCSVCGDPAK [P287 analog] | similar |  | 
9 | CCGCLTCSV [compound 287] |  | Only a partial competition | 
10 | KSSGKLISL [compound 195] |  | effectively displaced | 
11 | CNGRLYCGP [p217] |  |  | recognition frequency (f) of positive sera by phagotope ([3]; 22 LTNP sera and 25 AIDS sera, serum 1:100, positive = at least four-fold over wild-type phage): 23%; antibody titers to phagotope in sera from LTNPs versus AIDS patients [3]: significantly higher in sera from LTNPs; ELISA reactivity with AIDS sera ([3]; pool of AIDS sera): completely unreactive
12 | EGEFCKSSGKLISLCGDPAK [P195 analog] | similar |  | 
13 | SGRLYCHESW [compound 335] |  | effectively displaced | 
14 | EGEFCQTKLVCFAAAGDPAK [P197 analog] | similar |  | 
